Assay [1] relates to Enterobacter aerogenes ATCC 13048. Kind of assay: In Vitro Antibacterial Activity, agar dilution MIC. The format is cell-based. The following applies: E. aerogenes ATCC 13048; BHI agar dilution, 20-24 hours; unit assumed. The procedure: (§1) The activity of the compounds of the present invention was tested against a wide variety of bacteria using standard assay procedures. Minimum inhibitory concentrations (MICs) were determined by the agar dilution method, described below, using Brain Heart Infusion agar.
(§2) Twelve petri dishes were prepared, each containing successive aqueous 2-fold dilutions of the test compounds mixed with 10 mL of sterilized Brain Heart Infusion (BHI) agar. Each plate was inoculated with 100-fold (or 10-fold, for slow-growing strains such as Micrococcus and Streptococcus) dilutions of up to 32 different microorganisms using a Steers replicator block calibrated to deliver approximately 10^4 colony forming units (CFUs). The inoculated plates were incubated at about 35°-37° C. for approximately 20-24 hours. In addition, a control plate, using BHI agar containing no test compound, was prepared and incubated at the beginning and at the end of each test. Ciprofloxacin was used as the reference antibiotic.
(§3) The MIC was defined as the lowest concentration of test compound yielding no growth (a slight haze or sparsely isolated colonies at the inoculum spot as compared to the growth control contaning no test compound.

Assay [2] deals with Enterococcus faecium ATCC 8043. Kind of assay: In Vitro Antibacterial Activity, agar dilution MIC. As to conditions: E. faecium ATCC 8043; BHI agar dilution, 20-24 hours; unit assumed. It is filed as cell-based. On the procedure: as §1, §2, §3
A general note: In agar dilution, organisms are placed on agar that contains the substance at set levels.

A further assay deals with Escherichia coli DC-2. In words: In Vitro Antibacterial Activity, agar dilution MIC. The format is cell-based. The following applies: E. coli DC-2; BHI agar dilution, 20-24 hours; unit assumed. The procedure:
as §1, §2, §3

The subject of a further assay is Escherichia coli H560. In words: In Vitro Antibacterial Activity, agar dilution MIC. The following applies: E. coli H560; BHI agar dilution, 20-24 hours; unit assumed. The format is cell-based. The procedure: as §1, §2, §3
Another assay concerns Escherichia coli KNK 437. Kind of assay: In Vitro Antibacterial Activity, agar dilution MIC. The format is cell-based. The following applies: E. coli KNK 437; BHI agar dilution, 20-24 hours; unit assumed. The procedure:
as §1, §2, §3

For the next assay, the system named is Escherichia coli SS. Kind of assay: In Vitro Antibacterial Activity, agar dilution MIC. It is filed as cell-based. The following applies: E. coli SS; BHI agar dilution, 20-24 hours; unit assumed. On the procedure:
as §1, §2, §3

Assay [3] concerns Micrococcus luteus ATCC 4698. Kind of assay: In Vitro Antibacterial Activity, agar dilution MIC. It is filed as cell-based. The following applies: M. luteus ATCC 4698; BHI agar dilution, 20-24 hours; unit assumed. The procedure: as §1, §2, §3
The subject of assay [4] is Micrococcus luteus ATCC 9341. Kind of assay: In Vitro Antibacterial Activity, agar dilution MIC. It is filed as cell-based. As to conditions: M. luteus ATCC 9341; BHI agar dilution, 20-24 hours; unit assumed. On the procedure: as §1, §2, §3
Assay [5] deals with Pseudomonas aeruginosa BMH10. Kind of assay: In Vitro Antibacterial Activity, agar dilution MIC. It is filed as cell-based. The following applies: P. aeruginosa BMH10; BHI agar dilution, 20-24 hours; unit assumed. On the procedure: as §1, §2, §3
The test system of assay [6] is Pseudomonas aeruginosa K799/WT. In words: In Vitro Antibacterial Activity, agar dilution MIC. The format is cell-based. The following applies: P. aeruginosa K799/WT; BHI agar dilution, 20-24 hours; unit assumed. The procedure: as §1, §2, §3
For assay [7], the system named is Staphylococcus aureus 45 RAR2. In words: In Vitro Antibacterial Activity, agar dilution MIC. The following applies: S. aureus 45 RAR2; BHI agar dilution, 20-24 hours; unit assumed. The format is cell-based. The procedure:
as §1, §2, §3

Assay [8] has as its system Staphylococcus aureus 642A. In words: In Vitro Antibacterial Activity, agar dilution MIC. It is filed as cell-based. As to conditions: S. aureus 642A; BHI agar dilution, 20-24 hours; unit assumed. The procedure:
as §1, §2, §3

The test system of assay [9] is Staphylococcus aureus A5177. Kind of assay: In Vitro Antibacterial Activity, agar dilution MIC. It is filed as cell-based. As to conditions: S. aureus A5177; BHI agar dilution, 20-24 hours; unit assumed. On the procedure:
as §1, §2, §3

Assay [10] concerns Staphylococcus aureus ATCC 6538P. In words: In Vitro Antibacterial Activity, agar dilution MIC. The format is cell-based. The following applies: S. aureus ATCC 6538P; BHI agar dilution, 20-24 hours; unit assumed. On the procedure: as §1, §2, §3
Assay [11] concerns Staphylococcus aureus CMX 553. In words: In Vitro Antibacterial Activity, agar dilution MIC. The following applies: S. aureus CMX 553; BHI agar dilution, 20-24 hours; unit assumed. The format is cell-based. On the procedure:
as §1, §2, §3

The subject of assay [12] is Staphylococcus aureus NCTC 10649. Kind of assay: In Vitro Antibacterial Activity, agar dilution MIC. As to conditions: S. aureus NCTC 10649; BHI agar dilution, 20-24 hours; unit assumed. It is filed as cell-based. The procedure: as §1, §2, §3
Assay [13] concerns Staphylococcus epidermidis 3519. In words: In Vitro Antibacterial Activity, agar dilution MIC. It is filed as cell-based. As to conditions: S. epidermidis 3519; BHI agar dilution, 20-24 hours; unit assumed. The procedure: as §1, §2, §3
Assay [14] deals with Streptococcus bovis A5169. In words: In Vitro Antibacterial Activity, agar dilution MIC. It is filed as cell-based. As to conditions: S. bovis A5169; BHI agar dilution, 20-24 hours; unit assumed. The procedure:
as §1, §2, §3

The test system of assay [15] is Streptococcus pyogenes 930 CONST. In words: In Vitro Antibacterial Activity, agar dilution MIC. The format is cell-based. As to conditions: S. pyogenes 930 CONST; BHI agar dilution, 20-24 hours; unit assumed. On the procedure:
as §1, §2, §3

Assay [16] has as its system Streptococcus pyogenes EES61. Kind of assay: In Vitro Antibacterial Activity, agar dilution MIC. The format is cell-based. The following applies: S. pyogenes EES61; BHI agar dilution, 20-24 hours; unit assumed. On the procedure: as §1, §2, §3
Assay [17] deals with Staphylococcus aureus NCTC 10649. In words: In Vivo Antibacterial Activity, protection of CF-1 female mice from bacterial challenge. On the set-up: species or system CF-1 female mice infected with Staphylococcus aureus. The following applies: 100 times the LD50 i.p., dosed at 1 and 5 hr after infection, mortality on sixth day. The procedure: The in vivo antibacterial activity of one of the compounds of the present invention was determined by studying the protection of CF-1 female mice from bacterial challenge. The test compound was 7-(2-dimethylaminomethyl-1,4-dioxa-7-azaspiro[4.4]non-7-yl)-6-fluoro-1-(2,4-difluorophenyl)-1,8-naphthyridine-3-carboxylic acid (prepared in Example 445). Aqueous solutions of the compound were made by dissolving it in dilute NaOH and diluting with distilled water to the desired volume.
The median lethal dose of the test organism was then determined as follows: After 18 hours incubation, a culture of Staphylococcus aureus NCTC 10649 was serially diluted by using 10-fold dilutions in 5% (w/v) hog gastric mucin. 0.5 mL samples, of dilution from 10^-1 to 10^-8, were injected intraperitoneally into mice. The LD50 for the test organism was calculated from the cumulative mortalities on the sixth day by the using the Reed and Muench procedure (Reed, L. J., and H. Muench, Amer. J. Hygiene, 27, 493 (1938)).
The 18 hour culture of the test organism was then diluted in 5% (w/v) hog gastric mucin to obtain 100 times the LD50, and 0.5 mL was injected intraperitoneally into mice. The mice were treated subcutaneously or orally with a specific amount of the test compound divided equally to be administered at 1 and 5 hr after infection. […]

Structures are written as SMILES. Values after ≈ are worked out from the molar mass of the structure shown. Like-named read-outs stand apart in the source and are kept apart here.

For `CN(C)CC1COC2(CCN(c3nc4c(cc3F)c(=O)c(C(=O)O)cn4-c3ccc(F)cc3F)C2)O1` (stereo not shown) [Example 445], the MIC values in assay [1] was determined as 3.1 µg/mL (≈ 6.15 µM); in assay [2], 1.56 µg/mL (≈ 3.09 µM); in the assay on Escherichia coli DC-2 it was 12.5 µg/mL (≈ 24.8 µM); in the assay with Escherichia coli H560 it was 1.56 µg/mL (≈ 3.09 µM); against Escherichia coli KNK 437, 12.5 µg/mL (≈ 24.8 µM); in the assay on Escherichia coli SS, 0.2 µg/mL (≈ 0.396 µM). Also, the MIC values in assay [3] was 12.5 µg/mL (≈ 24.8 µM); in assay [4] it was 12.5 µg/mL (≈ 24.8 µM); in assay [5] it was 12.5 µg/mL (≈ 24.8 µM); in assay [6] it was 12.5 µg/mL (≈ 24.8 µM); in assay [7], 0.78 µg/mL (≈ 1.55 µM); in [8] it was 0.39 µg/mL (≈ 0.773 µM). In addition, the MIC values turned out to be 0.39 µg/mL (≈ 0.773 µM) in assay [9]; 0.2 µg/mL (≈ 0.396 µM) in [10]; 0.39 µg/mL (≈ 0.773 µM) in assay [11]; 0.2 µg/mL (≈ 0.396 µM) in assay [12]; 0.39 µg/mL (≈ 0.773 µM) in [13]; 1.56 µg/mL (≈ 3.09 µM) in assay [14]. The MIC values in [15] and in assay [16] was 0.78 µg/mL (≈ 1.55 µM) throughout. The ED50 is 6 mg/kg in [17] (NCTC10649, 144 h, oral, read-out: oral ED50) and 5 mg/kg in [17] (NCTC10649, sc, 144 h, subcutaneous, read-out: subcutaneous ED50).

The term ED50 denotes the midpoint of the dose-response relation.
